{"source": "patent US20200306292A1", "about": "“METHOD FOR TREATING ACUTE HYPOVOLEMIA” (Wonder Spray, LLC, priority 2019, published 2020)", "origin": "cited, not measured here", "key": {"[1]": {"system": "f2 RNA", "conditions": "naked f2 RNA compared with RNA in intact phage"}, "[2]": {"conditions": "inhalation"}, "[3]": {"system": "E. coli", "conditions": "(2.6 ppm) HOCl, within 5 minutes"}, "[4]": {"system": "E. coli", "conditions": "50 mM (2.6 ppm) HOCl, within 5 minutes"}}, "data": [{"smiles": "OCl", "note": "[HOCl, hypochlorous acid]", "values": [{"measurement": "inactivation of naked f2 RNA", "setting": "[1]", "value": "inactivated naked f2 RNA at the same rate as RNA in intact phage"}, {"measurement": "adverse effects on inhaling the aerosolized form", "setting": "[2]", "value": "no adverse effects"}, {"measurement": "growth of E. coli", "setting": "[3]", "value": "completely inhibited"}, {"measurement": "inhibiting the DNA synthesis", "setting": "[4]", "value": "ninety-six"}]}]}
